Publication PMC4766633, “Unique PFK regulatory property from some mosquito vectors of disease, and from Drosophila melanogaster” (Parasites & Vectors, 2016)

Key:
[1] = target: T1, AaPFK (Aedes aegypti phosphofructokinase) (Aedes aegypti, UniProt A0A903U8I9); assay: coupled NADH oxidation assay (aldolase/TPI/alpha-GPDH), […] nm; format: biochemical; details: substrate inhibition, allosteric, second site; 1 mM F6P, 5 mM MgCl2, pH 7.4; crude extract; unit not printed (ATP range given in mM)
T1 construct: gene 5568472; native enzyme in supernatant of whole-insect homogenate, not purified
T1 sequence (A0A903U8I9 1-790): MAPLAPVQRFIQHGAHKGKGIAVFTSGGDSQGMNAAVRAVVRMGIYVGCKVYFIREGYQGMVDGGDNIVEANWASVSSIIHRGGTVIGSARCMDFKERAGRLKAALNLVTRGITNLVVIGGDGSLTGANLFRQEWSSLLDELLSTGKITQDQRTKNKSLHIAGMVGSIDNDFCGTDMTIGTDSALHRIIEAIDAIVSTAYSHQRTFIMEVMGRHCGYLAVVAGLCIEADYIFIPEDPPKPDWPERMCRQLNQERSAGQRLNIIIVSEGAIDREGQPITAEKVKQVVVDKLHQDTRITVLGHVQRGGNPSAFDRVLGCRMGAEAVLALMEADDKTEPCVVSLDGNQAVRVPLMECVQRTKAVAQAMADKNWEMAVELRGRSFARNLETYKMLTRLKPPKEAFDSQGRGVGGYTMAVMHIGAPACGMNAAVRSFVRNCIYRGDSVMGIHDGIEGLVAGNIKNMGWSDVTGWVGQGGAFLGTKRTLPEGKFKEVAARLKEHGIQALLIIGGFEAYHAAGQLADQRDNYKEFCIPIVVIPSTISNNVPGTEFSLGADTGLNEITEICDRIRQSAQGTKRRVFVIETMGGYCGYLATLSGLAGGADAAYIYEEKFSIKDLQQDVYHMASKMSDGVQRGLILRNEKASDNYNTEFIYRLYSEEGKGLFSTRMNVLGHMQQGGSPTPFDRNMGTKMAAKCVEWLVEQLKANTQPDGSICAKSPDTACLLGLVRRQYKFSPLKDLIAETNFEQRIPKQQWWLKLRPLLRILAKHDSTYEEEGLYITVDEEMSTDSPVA

[2] = substrate: Nc1ncnc2c1ncn2[C@@H]1O[C@H](COP(=O)(O)OP(=O)(O)OP(=O)(O)O)[C@@H](O)[C@H]1O; assay: cells, lysate or membranes; details: 1 mM F6P, 5 mM MgCl2, pH 7.4 (Fig. 1 legend: pH 8.0); crude extract; Table 1 labels this number Kprime = K0.5^h with h 0.741

`Nc1ncnc2c1ncn2[C@@H]1O[C@H](COP(=O)(O)OP(=O)(O)OP(=O)(O)O)[C@@H](O)[C@H]1O` [ATP] was tested, and the “ATP / Activity [U (mg protein) ^-1]” value [1] was 4.536 ± 0.178.

B1: AaPFK (Aedes aegypti phosphofructokinase) (Aedes aegypti) (protein)
chain: T1 sequence (A0A903U8I9 1-790)
In the case of B1, the K0.5 [2] is reported as 0.43 ± 0.10 mM.
